What was measured:
CB2R = target: T1, CB2R (Mus musculus, UniProt P47936); assay: Early and pretreatment with CB2R agonist in stroke; format: in vivo
T1 construct: from tissue; host or cells: living mouse; brain (microglia and neurons) after stroke
Excerpt: Optimal treatment time with CB2R agonist for anti-inflammation and neurodegeneration is studied after stroke. […] Using Cx3crl-Cnr2 and Nestin-Cnr2 pre-clinical mouse models of stroke timed experiments by administering the commercially available CB2R agonist […] at specific time points post infarct at selected doses provides data to evaluate compounds for this use. The CB2R molecular pathways and partners in stroke studied in microglia and neural progenitor cells (NPC) on different post stroke days are evaluated when various compounds are tested. Such microglia and neuron specific CB2Rs-KO stroke behavioral models allow precise mapping of CB2R selective agonist (e.g. JWH133) for potential protective roles in stroke.

[1] = tested on: mice subjected to chronic mild stress (CMS); assay: Alcohol consumption in mice subjected to chronic mild stress (CMS); format: in vivo, mouse; conditions: for alcohol consumption: mice subjected to chronic mild stress (CMS); for CB2R agonist or antagonist effect on alcohol consumption: normal mice not subjected to CMS
Excerpt: The involvement of brain neuronal CB2Rs in drug abuse and depression is studied by using the conditional ko mice of the invention. Mice preferring alcohol have reduced Cnr2 gene expression in the ventral midbrain whereas the Cnr2 gene expression is unaltered in the ventral midbrain region of mice with little or no preference for alcohol. […] This CB2R agonist or antagonist effect is absent in normal mice that were not subjected to CMS.

Cnr2 gene transcripts = assay: Expression of Cnr2 gene transcripts in rodents treated with abused substances; format: in vivo; conditions: treated animals in comparison to controls
BTBR mice = assay: Behavioral effects of THC in a mouse model of depression (time and number of immobility); format: in vivo; conditions: BTBR mice (autism-like phenotype) compared to control mice; FIG. 1
Excerpt: FIG. 1. Behavioral effects THC in a mouse model of depression: The time and number of immobility in the test is the index measured.

T1 sequence (P47936 whole entry): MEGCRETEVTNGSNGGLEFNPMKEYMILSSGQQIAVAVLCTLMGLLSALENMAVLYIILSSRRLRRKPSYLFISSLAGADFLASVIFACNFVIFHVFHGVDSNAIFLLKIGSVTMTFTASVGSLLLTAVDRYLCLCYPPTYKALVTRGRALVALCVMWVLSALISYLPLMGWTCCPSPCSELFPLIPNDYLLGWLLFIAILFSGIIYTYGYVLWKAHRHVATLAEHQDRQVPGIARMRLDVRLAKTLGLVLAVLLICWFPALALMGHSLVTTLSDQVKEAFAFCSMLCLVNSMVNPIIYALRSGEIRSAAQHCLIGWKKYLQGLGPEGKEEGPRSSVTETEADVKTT

SMILES | brain infarct volumes (CB2R) | neurological deficits (CB2R) | alcohol consumption [1] | CB2R agonist or antagonist effect on alcohol consumption [1] | further results
CCCC(C)(C)c1ccc2c(c1)OC(C)(C)[C@@H]1CC=C(C)C[C@@H]21 [JWH133] | significantly reduce | significantly reduce | – | – | –
CCCn1c(C)c(C(=O)c2cccc3ccccc23)c2ccccc21 [JWH 015] | – | – | enhances alcohol consumption | absent | –
CC(=O)Oc1ccc2c3c1O[C@H]1[C@@H](OC(C)=O)C=C[C@H]4[C@@H](C2)N(C)CC[C@@]341 [heroin] | – | – | – | – | Cnr2 gene transcripts in the brain (Cnr2 gene transcripts): increased Cnr2 gene transcripts
COc1ccc(C(=O)c2c(C)n(CCN3CCOCC3)c3cc(I)ccc23)cc1 [AM630] | – | – | reduces the stress-induced increase in alcohol consumption | absent | –
CCCCCc1cc(O)c2c(c1)OC(C)(C)[C@@H]1CCC(C)=C[C@@H]21 [THC, tetrahydrocannabinol] | – | – | – | – | Behavioral effects of THC: time and number of immobility (BTBR mice): BTBR mice are insensitive to the effects of THC
CN1CCCCC1Cn1cc(C(=O)c2cc([N+](=O)[O-])ccc2I)c2ccccc21 (stereo not shown) [AM1241] | significantly reduce | significantly reduce | – | – | –
